Columns and labels:
[1] = target: HEK-293 cells stably expressing the subunit α5 of the human GABAA receptor, and also the subunits beta2 (short) and gamma2 (long) (Homo sapiens (Human), UniProt P31644); test: GABAA receptor activity study (membrane potential, FMP marker, FlexStation3); format: cell-based; details: 40 min preincubation, then GABA, read-out: alpha5 IC50
Description: (§1) The compounds are tested on HEK-293 (Human Embryonic Kidney) cells stably expressing the subunit α5 of the human GABAA receptor, and also the subunits beta2 (short) and gamma2 (long). The cells are maintained in the presence of a selection of three antibiotics—neomycin, zeocin and puromycin—in a Dulbecco medium (DMEM) containing 10% (v/v) foetal bovine serum. On the day before the experiment, the cells are transferred to 96-well plates (in a density of 50,000 cells/well). The cells are then preincubated for 40 minutes with the compounds under test and are treated with GABA. The membrane potential is monitored using a blue FMP marker (Molecular Devices), following the instructions of the manufacturer. The responses are recorded for 120 seconds on a FlexStation3 plate reader (Molecular Devices, USA). The IC50 values of the tested compounds are determined by curve adjustment obtained by non-linear regression using SoftMax Pro software (Molecular Devices, USA).

[2] = target: HEK-293 cells stably expressing the subunit α5 of the human GABAA receptor, and also the subunits beta2 (short) and gamma2 (long) (Homo sapiens (Human), UniProt P18507+P31644+P47870); test: as above; format: cell-based; details: 40 min preincubation, then GABA, read-out: alpha5 IC50
Chain of HEK-293 cells stably expressing the subunit α5 of the human GABAA receptor, and also the subunits beta2 (short) and gamma2 (long) (Homo sapiens (Human), UniProt P18507+P31644+P47870) (P31644 32-462): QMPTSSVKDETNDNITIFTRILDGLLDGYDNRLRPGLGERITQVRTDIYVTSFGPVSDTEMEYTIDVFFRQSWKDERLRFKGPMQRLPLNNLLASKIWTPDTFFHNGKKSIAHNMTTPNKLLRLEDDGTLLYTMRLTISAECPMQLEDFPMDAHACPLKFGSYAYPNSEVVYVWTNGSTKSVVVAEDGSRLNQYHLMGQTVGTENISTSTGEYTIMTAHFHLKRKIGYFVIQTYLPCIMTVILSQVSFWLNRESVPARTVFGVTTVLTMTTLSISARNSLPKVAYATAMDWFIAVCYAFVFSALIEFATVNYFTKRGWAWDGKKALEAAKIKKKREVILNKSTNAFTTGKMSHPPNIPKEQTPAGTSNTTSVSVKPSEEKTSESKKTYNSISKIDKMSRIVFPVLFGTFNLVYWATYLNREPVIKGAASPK
Chain of HEK-293 cells stably expressing the subunit α5 of the human GABAA receptor, and also the subunits beta2 (short) and gamma2 (long) (Homo sapiens (Human), UniProt P18507+P31644+P47870) (P47870 25-512 partner): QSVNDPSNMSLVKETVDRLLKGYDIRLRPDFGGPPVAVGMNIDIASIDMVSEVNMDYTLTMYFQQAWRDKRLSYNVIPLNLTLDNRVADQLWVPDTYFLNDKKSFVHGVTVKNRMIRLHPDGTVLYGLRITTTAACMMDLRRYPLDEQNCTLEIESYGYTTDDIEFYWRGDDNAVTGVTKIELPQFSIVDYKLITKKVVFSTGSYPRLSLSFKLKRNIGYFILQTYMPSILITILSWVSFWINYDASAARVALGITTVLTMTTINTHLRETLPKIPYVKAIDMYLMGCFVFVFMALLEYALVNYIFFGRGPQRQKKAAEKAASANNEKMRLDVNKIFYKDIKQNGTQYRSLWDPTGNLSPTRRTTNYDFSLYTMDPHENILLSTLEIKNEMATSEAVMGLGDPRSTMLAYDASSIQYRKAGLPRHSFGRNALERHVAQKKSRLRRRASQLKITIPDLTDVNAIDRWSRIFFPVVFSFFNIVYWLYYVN
Chain of HEK-293 cells stably expressing the subunit α5 of the human GABAA receptor, and also the subunits beta2 (short) and gamma2 (long) (Homo sapiens (Human), UniProt P18507+P31644+P47870) (P18507 40-475 partner): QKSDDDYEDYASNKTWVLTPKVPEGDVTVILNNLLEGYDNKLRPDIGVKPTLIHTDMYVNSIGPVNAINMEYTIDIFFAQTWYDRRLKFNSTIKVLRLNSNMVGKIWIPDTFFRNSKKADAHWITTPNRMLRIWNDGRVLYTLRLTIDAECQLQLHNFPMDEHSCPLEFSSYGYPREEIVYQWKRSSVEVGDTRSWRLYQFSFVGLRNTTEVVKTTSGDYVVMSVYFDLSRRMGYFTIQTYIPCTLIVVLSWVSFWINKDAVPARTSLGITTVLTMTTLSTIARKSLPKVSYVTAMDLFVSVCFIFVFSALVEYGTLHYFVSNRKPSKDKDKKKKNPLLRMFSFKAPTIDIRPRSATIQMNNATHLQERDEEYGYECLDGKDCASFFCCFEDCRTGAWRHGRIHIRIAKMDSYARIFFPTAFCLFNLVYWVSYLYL
Description: as §1

male NMRI mice [3] = test: Test for recognition of new objects, in the mouse; format: in vivo; details: i.p.
Description: This test measures non-spatial working memory in the rodent. It is based on the natural tendency of the animal to spend more time exploring a new object than a familiar object.
On Day 0 (familiarisation phase), male NMRI mice are placed in a black PVC box (32×45×27 cm) without an object, for 2.5 minutes. On the first day the mice are free to explore two identical objects for 3 minutes (acquisition phase). On the second day one of the objects is replaced by a new object and the duration of exploration is timed for each object over a period of 4 minutes (retention phase). Pretreatment with the compounds of the invention is carried out by the i.p. route on the day of the acquisition phase. The duration of exploration is measured by the TSE System software (TSE System GmbH, Bad Homburg, Germany),

rats = test: Radial maze test in the rat (ketamine-induced memory deficit); format: in vivo; details: dose-dependent from 0.3 to 3 mg/kg p.o., ketamine 10 mg/kg i.p., FIG. 4
Description: This test is widely used to evaluate working and referential memory in the rodent. The apparatus consists of a small central octagonal platform from which there radiate eight different, equally spaced corridors. At the end of each corridor there is food, which is not visible from the central platform. In the experiment, all the corridors contain a reward and the animal has to visit each of the corridors just once. Each further visit is considered an error.
On the first day of the experiment the rats are deprived of food for 24 hours. Learning starts on the following day. The rats are placed on the central platform of the maze, each of the eight corridors having been provided with food. The animals are free to eat the food in the eight corridors. If a rat has not eaten all of the food within 20 minutes, it is withdrawn from the maze.
The experiments are continued once a day until the animals attain the determined objective, namely obtaining a total number of errors—that is to say, of any further visits to a corridor—of less than 3. These animals are included in the rest of the study. On the last day, the selected rats are treated p.o. with ketamine (10 mg/kg i.p.) co-administered either with a carrier or with a compound of the invention. The tests start 120 minutes after administration. Each test lasts a maximum of 5 minutes.

male NMRI mice [4] = test: Occlusion of the middle cerebral artery (MCA) in the mouse; format: in vivo; details: doses of 1, 3 and 10 mg/kg i.p., 30 minutes after MCA occlusion, FIG. 5
Description: Permanent focal cerebral ischaemia is produced by electrocoagulation of the left MCA (according to the method of Welsh F A et al., J. Neurochem. 1987, 49, 846-851). Male NMRI mice are anaesthetised using 2,2,2-tribromoethanol (500 mg/kg i.p., 20 ml/kg). An incision is made in the left temporo-parietal region of the head between the orbit and the ear. The temporal muscle is then incised and folded back to expose the skull. A small trepanation hole is drilled in the outer lateral part of the skull just to the level of the MCA, and the trunk of the MCA is then occluded by electrocoagulation.
The compounds of the invention are administered by the i.p. route 30 minutes after occlusion of the MCA. Two days later, the animals are deeply anaesthetised using sodium pentobarbital (60 mg/kg i.p., 10 ml/kg) perfused through the heart with a 4% 2,3,5-triphenyltetrazolium chloride solution. The animals are finally decapitated, and the brains are extracted and placed for at least 24 hours in a saline solution containing 8% formaldehyde. Measurement of the necrosed surface area is determined using an image analysis system (DigiCell for Windows 4.0).

Chain of HEK-293 cells stably expressing the subunit α5 of the human GABAA receptor, and also the subunits beta2 (short) and gamma2 (long) (Homo sapiens (Human), UniProt P31644) (P31644 32-462): as the sequence (P31644 32-462) above
Chain of HEK-293 cells stably expressing the subunit α5 of the human GABAA receptor, and also the subunits beta2 (short) and gamma2 (long) (Homo sapiens (Human), UniProt P31644) (P47870 25-512 partner): as the sequence (P47870 25-512 partner) above
Chain of HEK-293 cells stably expressing the subunit α5 of the human GABAA receptor, and also the subunits beta2 (short) and gamma2 (long) (Homo sapiens (Human), UniProt P31644) (P18507 40-475 partner): as the sequence (P18507 40-475 partner) above

IC50 [1] | IC50 [2] | Structure (SMILES) | further results
0.25 µM |  | CC1=NN=C(c2sc3cccc(C(F)(F)F)c3c2Cl)c2cc3oc(=O)[nH]c3cc2C1 [Example 9, 5-[3-chloro-4-(trifluoromethyl)-1-benzothien-2-yl]-8-methyl-1,9-dihydro-2H-[1,3]oxazolo[4,5-h][2,3]benzodiazepin-2-one] | 
 | 0.172 µM | CC1=NN=C(c2cc3cc(Cl)ccc3s2)c2cc3oc(=O)[nH]c3cc2C1 [Example 32, 5-(5-chloro-1-benzothien-2-yl)-8-methyl-1,9-dihydro-2H-[1,3]-oxazolo[4,5-h][2,3]benzodiazepin-2-one] | 
0.2 µM |  | CC1=NN=C(c2cc3c(F)cccc3s2)c2cc3oc(=O)[nH]c3cc2C1 [Example 21, 5-(4-fluoro-1-benzothien-2-yl)-8-methyl-1,9-dihydro-2H-[1,3]oxazolo[4,5-h][2,3]benzodiazepin-2-one] | procognitive effect in the object recognition model (male NMRI mice [3]; doses of 0.01, 0.03 and 0.1 mg/kg, FIG. 1): significant procognitive effect; reversal of ketamine-induced referential memory deficit (rats): significantly reverses the ketamine-induced referential memory deficit; inhibition of cerebral damage (necrosed surface area) (male NMRI mice [4]): significantly inhibits cerebral damage
0.5 µM |  | CC1=NN=C(c2cc3c(C(F)(F)F)cccc3s2)c2cc3oc(=O)[nH]c3cc2C1 [Example 31, 8-methyl-5-[4-(trifluoromethyl)-1-benzothien-2-yl]-1,9-dihydro-2H-[1,3]oxazolo[4,5-h][2,3]benzodiazepin-2-one] | procognitive effect in the object recognition model (male NMRI mice [3]; dose of 1 mg/kg, FIG. 2): significant procognitive effect
 | 0.43 µM | CC1=NN=C(c2ccc3ncccc3c2)c2cc3oc(=O)[nH]c3cc2C1 [Example 5, 8-methyl-5-(6-quinolyl)-1,9-dihydro-2H-[1,3]oxazolo[4,5-h][2,3]-benzodiazepin-2-one] | 
 | 0.227 µM | CC1=NN=C(c2cc3cccc(F)c3s2)c2cc3oc(=O)[nH]c3cc2C1 [Example 40, 5-(7-fluoro-1-benzothien-2-yl)-8-methyl-1,9-dihydro-2H-[1,3]-oxazolo[4,5-h][2,3]benzodiazepin-2-one] | 
0.13 µM |  | CC1=NN=C(c2cc3ccccc3s2)c2cc3oc(=O)[nH]c3cc2C1 [Example 6, 5-(1-benzothien-2-yl)-8-methyl-1,9-dihydro-2H-[1,3]oxazolo[4,5-h][2,3]benzodiazepin-2-one] | 
0.1 µM |  | CC1=NN=C(c2cc3ccc(F)cc3s2)c2cc3oc(=O)[nH]c3cc2C1 [Example 36, 5-(6-fluoro-1-benzothien-2-yl)-8-methyl-1,9-dihydro-2H-[1,3]oxazolo[4,5-h][2,3]benzodiazepin-2-one] | procognitive effect in the object recognition model (male NMRI mice [3]; dose of 10 mg/kg, FIG. 3): significant precognitive effect

From patent US8778932B2, “Dihydro-oxazolobenzodiazepinone compounds, a process for there preparation and pharmaceutical compositions containing them” (Les Laboratoires Servier, priority 2011, dated 2014)
